Earlier results in article PMC9056484 (Advances in Therapy, 2022).
Read-outs that look alike come from different tables or passages of the source. Each block holds one molecule with its values, some of them ahead of it.

Columns and labels:
human albumin = settings: concentration range 1–100 ng/ml
[1] = tested on: early Parkinson disease patients; settings: rasagiline 1 mg/day, Week 26
[2] = tested on: Parkinson's disease patients; settings: for effects on clinical progression (in words): delayed-start design trial
dopamine D3 receptor = settings: read-out: Ki, D3 receptor
[3] = not given; remark: listed apart in the source
[4] = not given; remark: listed apart in the source
[5] = tested on: early Parkinson disease patients
[6] = tested on: early Parkinson's disease patients; settings: pramipexole 1.5 mg/day, 9 months
[7] = tested on: early Parkinson's disease patients
early PD patients [8] = tested on: early PD patients
early PD patients [9] = settings: higher doses of pramipexole in early PD
[10] = tested on: Parkinson's disease patients; settings: pramipexole monotherapy
[11] = Pramipexole 1.5 mg, n = 54, STEP-UP
[12] = Pramipexole groups combined (1.5–6 mg), N = 213, STEP-UP
[13] = Pramipexole 0.5 mg BID, n = 81, PRAMI-BID
[14] = Pramipexole 0.5 mg TID, n = 80, PRAMI-BID
[15] = Pramipexole 0.75 mg BID, n = 73, PRAMI-BID

absolute bioavailability: about 36% | time to peak plasma concentration (Cmax): approximately 1 hour | mean extent of binding to human albumin (human albumin): 61–63%
Compound: C#CCN[C@@H]1CCc2ccccc21 [Rasagiline, N-propargyl-1-(R)-aminoindan]
MAO-B inhibition (in words) (MAO-B): potent and irreversible inhibitor of MAO-B | improvement of Total UPDRS scores versus placebo [1]: 4.2 points | effects on clinical progression (in words) ([2]; rasagiline 1.0 mg): statistically significant effects on clinical progression | improvement of Total UPDRS scores versus placebo ([2]; rasagiline 1 mg/day, ~ Week 36): 3.0 points | effects on clinical progression (in words) ([2]; rasagiline 2.0 mg): but not 2.0 mg, had statistically significant effects

Ki (dopamine D3 receptor): 0.5 nM | affinity for D1 receptors, times lower than that to D3 receptors (D1 receptors): around 200,000 times | absolute oral bioavailability [3]: > 90% | absorbed dose eliminated unchanged ([3]; almost exclusively by the kidneys): > 90% | protein bound [4]: < 20% | patients with hallucinations ([5]; pramipexole 1.5 mg, within 10 weeks): > 5% | patients with hallucinations (early PD patients [8]; pramipexole up to 4.5 mg/day, early PD pivotal trials): 16.5% | placebo-adjusted changes from baseline in ESS score (early PD patients [9]): 1.0–2.1
Compound: CCCN[C@H]1CCc2nc(N)sc2C1 [Pramipexole]
Adverse event: Confusion [5, 11]: 3 (5.6) | Adverse event: Constipation [5, 11]: 4 (7.4) | Adverse event: Dizziness [5, 11]: 10 (18.5) | Adverse event: Fatigue [5, 11]: 4 (7.4) | Adverse event: Hallucination [5, 11]: 4 (7.4) | Adverse event: Headache [5, 11]: 5 (9.2) | Adverse event: Insomnia [5, 11]: 2 (3.7) | Adverse event: Nausea [5, 11]: 9 (16.7) | Adverse event: Somnolence [5, 11]: 9 (16.7) | Adverse event: Confusion [5, 12]: 9 (4.2) | Adverse event: Constipation [5, 12]: 23 (10.8) | Adverse event: Dizziness [5, 12]: 39 (18.3) | Adverse event: Hallucination [5, 12]: 14 (6.6) | Adverse event: Headache [5, 12]: 24 (11.3) | Adverse event: Insomnia [5, 12]: 16 (7.5) | Adverse event: Nausea [5, 12]: 42 (19.7) | Adverse event: Somnolence [5, 12]: 58 (27.2) | improvement of Total UPDRS scores versus placebo ([5]; pramipexole 1.5 mg/day, Week 10): 5.2 points | improvement of Total UPDRS scores versus placebo [6]: 4.8 points | Adverse event: Abnormal dreams [7, 13]: 3 (3.7) | Adverse event: Constipation [7, 13]: 8 (9.9) | Adverse event: Dizziness [7, 13]: 9 (11.1) | Adverse event: Fatigue [7, 13]: 6 (7.4) | Adverse event: Headache [7, 13]: 7 (8.6) | Adverse event: Insomnia [7, 13]: 3 (3.7) | Adverse event: Nausea [7, 13]: 18 (22.2) | Adverse event: Peripheral edema [7, 13]: 2 (2.5) | Adverse event: Somnolence [7, 13]: 14 (17.3) | Adverse event: Abnormal dreams [7, 14]: 5 (6.3) | Adverse event: Constipation [7, 14]: 5 (6.3) | Adverse event: Dizziness [7, 14]: 9 (11.3) | Adverse event: Fatigue [7, 14]: 4 (5.0) | Adverse event: Headache [7, 14]: 4 (5.0) | Adverse event: Insomnia [7, 14]: 6 (7.5) | Adverse event: Nausea [7, 14]: 15 (18.8) | Adverse event: Peripheral edema [7, 14]: 3 (3.8) | Adverse event: Somnolence [7, 14]: 20 (25.0) | Adverse event: Abnormal dreams [7, 15]: 2 (2.7) | Adverse event: Constipation [7, 15]: 7 (9.6) | Adverse event: Dizziness [7, 15]: 5 (6.8) | Adverse event: Fatigue [7, 15]: 7 (9.6) | Adverse event: Headache [7, 15]: 6 (8.2) | Adverse event: Insomnia [7, 15]: 11 (15.1) | Adverse event: Nausea [7, 15]: 11 (15.1) | Adverse event: Peripheral edema [7, 15]: 4 (5.5) | Adverse event: Somnolence [7, 15]: 16 (21.9) | Effects on PDQ-39 Total scores versus placebo (in words) ([7]; pramipexole 1.0 mg/day (0.5 mg BID), P = 0.32): not significantly different from placebo | PDQ-39 Total scores, treatment effect vs. placebo ([7]; pramipexole 1.5 mg/day (0.75 mg BID or 0.5 mg TID), P ≤ 0.05): 2.1 points | placebo-adjusted improvements in Total UPDRS ([7]; pramipexole 1–1.5 mg/day, Week 12): 4.4–4.7 points | incidence of somnolence (early PD patients [8]; pramipexole pivotal studies in early PD): 22% | disease-modifying effect (in words) [10]: did not find evidence of a disease-modifying effect

Compound: NC1CCc2ccccc21 (centres unmarked) [1-aminoindan]
MAO-B inhibition (in words) (MAO-B): weak MAO-B inhibitor
